This data set in a line: Hygroscopicity measurements (water content by Karl Fisher after humid storage). Conditions: for Hygroscopicity: water content (Karl Fisher) after 24 hours at 60° C./100% RH, then 24 hours at room temperature and about 30% RH. In kind it is physicochemical. Here is the method:
vii. Hygroscopicity Measurements
One gram of the sample was accurately weighed in a weighing bottle (diameter 5 cm), covered with kimwipes and left to rest in 60° C./100% RH environment (water/dessicator). 24 hours later, the weighing bottle was removed, transferred to an environment of room temperature and about 30% RH (magnesium chloride hexahydrate saturated water solution/dessicator) and left to rest for 24 hours and the water content of the sample was measured by the Karl Fisher method.

Each structure is given as a SMILES string. Where only a bound is given, the exact number is not on record here.

In the case of `O=C1CCc2ccc(OCCCCN3CCN(c4cccc(Cl)c4Cl)CC3)cc2N1` [aripiprazole Form J, 7-{4-[4-(2,3-dichlorophenyl)-1-piperazinyl]-butoxy}-3,4-dihydrocarbostyril], the “low hygroscopicity (moisture content)” value (after storing anhydrous aripiprazole Form J for 24 hours at 60° C. and a humidity level of 100%) was ≤ 0.5%. The compound `O=C1CCc2ccc(OCCCCN3CCN(c4cccc(Cl)c4Cl)CC3)cc2N1` [Example 1, 7-{4-[4-(2,3-dichlorophenyl)-1-piperazinyl]-butoxy}-3,4-dihydrocarbostyril] returned a Hygroscopicity of 0.06%. As to `O=C1CCc2ccc(OCCCCN3CCN(c4cccc(Cl)c4Cl)CC3)cc2N1` [Reference Example 2, 7-{4-[4-(2,3-dichlorophenyl)-1-piperazinyl]-butoxy}-3,4-dihydrocarbostyril, reference compound], the Hygroscopicity came to 0.35%.
